# Laboratory results from patent US20260355325A1, “DIMER COMPOUNDS” (KESMALEA THERAPEUTICS LIMITED, priority 2023, published 2026).
# Target: T1, BTK (Homo sapiens, UniProt Q06187)
# T1 construct: immunofluorescence degradation readout, 48 h
# Test: BTK IFA Assay (BTK degradation in OCI-Ly10 cells)
# Format: cell-based
# Settings: BTK degradation in OCI-Ly10 cells at 48-hour timepoint
# Method: The purpose of the BTK Assays were to assess the binding affinity of the dimer to BTK and subsequent protein degradation.
# OCI-Ly10 cells were obtained from CoBioer Biosciences Co. Ltd, Shanghai, China, and maintained in IMDM (Invitrogen™, Waltham, MA) supplemented with 20% FBS (AusGeneX, Molendinar, Australia) and 1%, penicillin/streptomycin (Invitrogen™, Waltham, MA) in a humidified incubator at 5% CO2, 37° C.
# Compounds were dissolved in DMSO (10 mM), serially diluted from 10 mM to 1.5 nM, and pre-incubated for 2 hours. Exponentially growing cells were seeded at 8×10^3 cells per well of 384 well plate (Corning, New York #356663). Cells were treated with compound for 48 hours. Following treatment, cells were fixed with 4% PFA (SolarBio Lifescience, Beijing, China) for 20 minutes, permeabilised in 100% ice-cold methanol (Merck, Darmstadt, Germany) for 10 minutes, and blocked with blocking buffer (LI-COR Biosciences Lincoln, NE) for 90 minutes.
# Cells were incubated with primary BTK antibody (CST #8547 Danvers, MA) at 1:1000 dilution overnight in blocking buffer (LI-COR, Lincoln, NE) at 4° C. Cells were washed in DPBS (Thermo Fisher Scientific, Waltham, MA) and incubated with secondary antibody AlexaFluor 488 goat anti rabbit (Invitrogen™ #A-11008 Waltham, MA) 1:1000 dilution, with Hoechst stain (Invitrogen™ Waltham, MA) 1:5000 dilution in blocking buffer (LI-COR Biosciences, Lincoln, NE) for 90 minutes. After final DPBS wash, 200 ul of DPBS was added to the cells, and signal read on Operetta (Revvity, Waltham, MA). Each data point was performed in duplicate for every experiment. A DC50 value was calculated from linear regression analysis of the plots.
# T1 sequence (Q06187 whole entry): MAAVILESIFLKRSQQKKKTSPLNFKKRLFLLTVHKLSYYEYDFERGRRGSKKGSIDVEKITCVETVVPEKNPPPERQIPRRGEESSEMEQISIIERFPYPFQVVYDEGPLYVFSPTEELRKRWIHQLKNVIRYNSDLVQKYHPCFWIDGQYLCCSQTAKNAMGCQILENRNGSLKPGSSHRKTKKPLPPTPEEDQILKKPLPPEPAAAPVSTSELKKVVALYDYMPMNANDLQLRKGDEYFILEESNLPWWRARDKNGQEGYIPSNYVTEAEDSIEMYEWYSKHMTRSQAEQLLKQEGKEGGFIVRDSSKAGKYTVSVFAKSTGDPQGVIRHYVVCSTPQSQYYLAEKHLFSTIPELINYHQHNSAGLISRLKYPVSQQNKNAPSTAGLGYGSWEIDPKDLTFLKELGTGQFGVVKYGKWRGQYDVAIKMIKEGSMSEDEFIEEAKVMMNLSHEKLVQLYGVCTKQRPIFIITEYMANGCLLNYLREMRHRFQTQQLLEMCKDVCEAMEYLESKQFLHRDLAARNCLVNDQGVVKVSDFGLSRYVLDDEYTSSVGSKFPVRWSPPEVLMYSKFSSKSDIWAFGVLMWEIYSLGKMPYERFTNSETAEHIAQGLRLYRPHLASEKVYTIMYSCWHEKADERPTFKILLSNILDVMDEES
row,SMILES,DC50 [nM]
1,"Cc1cc(C(=O)NCCC#Cc2cccc3c2CN(C2CCC(=O)NC2=O)C3=O)ccc1B1O[C@H]2C[C@H]3C[C@H](C3(C)C)[C@@]2(CCOCCN2CCC(n3nc(-c4ccc(Oc5ccccc5)cc4)c4c(N)ncnc43)CC2)O1 (mixture of isomers) [Example 15, 4-((3aR,4R,6R,7aS)-3a-(2-(2-(4-(4-amino-3-(4-phenoxyphenyl)-1H-pyrazolo[3,4-d]pyrimidin-1-yl)piperidin-1-yl)ethoxy)ethyl)-5,5-dimethylhexahydro-4,6-methanobenzo[d][1,3,2]dioxaborol-2-yl)-N-(4-(2-(2,6-dioxopiperidin-3-yl)-1-oxoisoindolin-4-yl)but-3-yn-1-yl)-3-methylbenzamide]",100 to 500
2,"Cc1cc(C(=O)N(C)CCCOc2ccc3c(c2)n(C)c(=O)n3C2CCC(=O)NC2=O)ccc1B1O[C@H]2C[C@H]3C[C@H](C3(C)C)[C@@]2(CCOCC(=O)N2CCC(n3nc(-c4ccc(Oc5ccccc5)cc4)c4c(N)ncnc43)CC2)O1 (mixture of isomers) [Example 16, 4-((3aR,4R,6R,7aS)-3a-(2-(2-(4-(4-amino-3-(4-phenoxyphenyl)-1H-pyrazolo[3,4-d]pyrimidin-1-yl)piperidin-1-yl)-2-oxoethoxy)ethyl)-5,5-dimethylhexahydro-4,6-methanobenzo[d][1,3,2]dioxaborol-2-yl)-N-(3-((1-(2,6-dioxopiperidin-3-yl)-3-methyl-2-oxo-2,3-dihydro-1H-benzo[d]imidazol-5-yl)oxy)propyl)-N,3-dimethylbenzamide]",500 to 1000
3,"Cc1cc(C(=O)NCCC#Cc2cccc3c2CN(C2CCC(=O)NC2=O)C3=O)ccc1B1O[C@H]2C[C@H]3C[C@H](C3(C)C)[C@@]2(CCOCC(=O)N2CCC(n3nc(-c4ccc(Oc5ccccc5)cc4)c4c(N)ncnc43)CC2)O1 (mixture of isomers) [Example 17, 4-((3aR,4R,6R,7aS)-3a-(2-(2-(4-(4-amino-3-(4-phenoxyphenyl)-1H-pyrazolo[3,4-d]pyrimidin-1-yl)piperidin-1-yl)-2-oxoethoxy)ethyl)-5,5-dimethylhexahydro-4,6-methanobenzo[d][1,3,2]dioxaborol-2-yl)-N-(4-(2-(2,6-dioxopiperidin-3-yl)-1-oxoisoindolin-4-yl)but-3-yn-1-yl)-3-methylbenzamide]",100 to 500
4,"Cc1ccc(C(=O)N(C)CCCOc2cccc3c2CN(C2CCC(=O)NC2=O)C3=O)cc1B1O[C@H]2C[C@H]3C[C@H](C3(C)C)[C@@]2(CCOCC(=O)N2CCC(n3nc(-c4ccc(Oc5ccccc5)cc4)c4c(N)ncnc43)CC2)O1 (mixture of isomers) [Example 19, 3-((3aR,4R,6R,7aS)-3a-(2-(2-(4-(4-amino-3-(4-phenoxyphenyl)-1H-pyrazolo[3,4-d]pyrimidin-1-yl)piperidin-1-yl)-2-oxoethoxy)ethyl)-5,5-dimethylhexahydro-4,6-methanobenzo[d][1,3,2]dioxaborol-2-yl)-N-(3-((2-(2,6-dioxopiperidin-3-yl)-1-oxoisoindolin-4-yl)oxy)propyl)-N,4-dimethylbenzamide]",500 to 1000
5,"Cc1cc(C(=O)N(C)CCOc2cccc3c2CN(C2CCC(=O)NC2=O)C3=O)ccc1B1O[C@H]2C[C@H]3C[C@H](C3(C)C)[C@@]2(CCOCC(=O)N2CCC(n3nc(-c4ccc(Oc5ccccc5)cc4)c4c(N)ncnc43)CC2)O1 (mixture of isomers) [Example 20, 4-((3aR,4R,6R,7aS)-3a-(2-(2-(4-(4-amino-3-(4-phenoxyphenyl)-1H-pyrazolo[3,4-d]pyrimidin-1-yl)piperidin-1-yl)-2-oxoethoxy)ethyl)-5,5-dimethylhexahydro-4,6-methanobenzo[d][1,3,2]dioxaborol-2-yl)-N-(2-((2-(2,6-dioxopiperidin-3-yl)-1-oxoisoindolin-4-yl)oxy)ethyl)-N,3-dimethylbenzamide]",1000 to 10000
6,"Cc1cc(C(=O)N(C)CCCOc2ccc3c(c2)n(C)c(=O)n3C2CCC(=O)NC2=O)ccc1B1O[C@H]2C[C@H]3C[C@H](C3(C)C)[C@@]2(CCOCCN2CCC(n3nc(-c4ccc(Oc5ccccc5)cc4)c4c(N)ncnc43)CC2)O1 (stereo partly drawn) [Example 14, 4-((3aR,4R,6R,7aS)-3a-(2-(2-(4-(4-amino-3-(4-phenoxyphenyl)-1H-pyrazolo[3,4-d]pyrimidin-1-yl)piperidin-1-yl)ethoxy)ethyl)-5,5-dimethylhexahydro-4,6-methanobenzo[d][1,3,2]dioxaborol-2-yl)-N-(3-((1-(2,6-dioxopiperidin-3-yl)-3-methyl-2-oxo-2,3-dihydro-1H-benzo[d]imidazol-5-yl)oxy)propyl)-N,3-dimethylbenzamide]",100 to 500
7,"Cc1cc(C(=O)N(C)CCCOc2cccc3c2CN(C2CCC(=O)NC2=O)C3=O)ccc1B1O[C@H]2C[C@H]3C[C@H](C3(C)C)[C@@]2(CCOCC(=O)N2CCC(n3nc(-c4ccc(Oc5ccccc5)cc4)c4c(N)ncnc43)CC2)O1 (stereo partly drawn) [Example 18, 4-((3aR,4R,6R,7aS)-3a-(2-(2-(4-(4-amino-3-(4-phenoxyphenyl)-1H-pyrazolo[3,4-d]pyrimidin-1-yl)piperidin-1-yl)-2-oxoethoxy)ethyl)-5,5-dimethylhexahydro-4,6-methanobenzo[d][1,3,2]dioxaborol-2-yl)-N-(3-((2-(2,6-dioxopiperidin-3-yl)-1-oxoisoindolin-4-yl)oxy)propyl)-N,3-dimethylbenzamide]",500 to 1000
